IC50 data for 14 compounds are collected here from US11976083B2, “Inhibitors of peptidylarginine deiminases” (Gilead Sciences, Inc., priority 2020, dated 2024).

For orientation: IC50 means the midpoint of a concentration-inhibition curve.

T1 sequence (Q9UM07 2-663): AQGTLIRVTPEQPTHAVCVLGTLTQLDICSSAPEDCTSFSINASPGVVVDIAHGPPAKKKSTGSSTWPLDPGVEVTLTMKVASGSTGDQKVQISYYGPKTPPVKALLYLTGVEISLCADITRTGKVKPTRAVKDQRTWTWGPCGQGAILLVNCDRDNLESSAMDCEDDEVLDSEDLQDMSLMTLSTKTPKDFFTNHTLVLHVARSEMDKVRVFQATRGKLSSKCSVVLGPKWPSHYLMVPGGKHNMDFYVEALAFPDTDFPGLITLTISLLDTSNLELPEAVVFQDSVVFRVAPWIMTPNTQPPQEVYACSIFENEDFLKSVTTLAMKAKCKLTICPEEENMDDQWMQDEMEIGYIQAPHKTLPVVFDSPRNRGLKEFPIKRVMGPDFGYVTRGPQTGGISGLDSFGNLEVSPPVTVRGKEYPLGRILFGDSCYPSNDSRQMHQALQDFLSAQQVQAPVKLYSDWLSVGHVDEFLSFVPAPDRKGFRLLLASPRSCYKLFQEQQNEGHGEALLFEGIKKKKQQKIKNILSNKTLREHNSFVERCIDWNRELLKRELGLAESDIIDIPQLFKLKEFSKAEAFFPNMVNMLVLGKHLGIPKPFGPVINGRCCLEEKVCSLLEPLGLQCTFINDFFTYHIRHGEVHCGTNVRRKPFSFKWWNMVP

The test addresses T1, human PAD4 (Homo sapiens, UniProt Q9UM07).
T1 construct: human PAD4 (NM_012387), A2-P663, was PCR amplified; His-SUMO (N, cleaved yes); made in house; host or cells: E. coli BL21(DE3)
The experiment in a line: In vitro PAD4 BAEE biochemical assay. The settings on record: BAEE substrate 3 mM, 5 nM PAD4, 2 mM calcium chloride; geometric mean of multiple experiments. The essentials: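 Recombinant PAD4 (5 nM final) with 2 mM CaCl2 was preincubated with compound for 30 min at 25 °C in MOPS pH 7.6 buffer with DTT, then reacted with 3 mM BAEE for 2 h at 25 °C. Released ammonia was detected fluorimetrically with o-phthalaldehyde/DTT; IC50 from four-parameter fit, geometric mean of experiments.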
`COc1cc(C(=O)N2CCC[C@@H](N)C2)cc2nc(-c3cc4ccc5nc4n3CCCCOCCC(=O)N3CCC[C@H]53)n(C)c12` [Example 108, (2~{R})-16-[5-[(3~{R})-3-aminopiperidine-1-carbonyl]-7-methoxy-1-methyl-benzimidazol-2-yl]-10-oxa-6,15,21-triazatetracyclo[13.5.2.0^{2,6}.0^{18,22}] docosa-1(21),16,18(22),19-tetraen-7-one]: the IC50 came out at 150 nM.

With `COc1cc(C(=O)N2CCC[C@@H](N)C2)cc2nc(-c3cc4ccc5nc4n3CCCCOCC(=O)N3CCC[C@H]53)n(C)c12` [Example 109, (2~{R})-15-[5-[(3~{R})-3-aminopiperidine-1-carbonyl]-7-methoxy-1-methyl-benzimidazol-2-yl]-9-oxa-6,14,20-triazatetracyclo[12.5.2.0^{2,6}.0^{17,21}] henicosa-1(20),15,17(21),18-tetraen-7-one], the IC50 was 303 nM. For `COc1cc(C(=O)N2CCC[C@@H](N)C2)cc2nc(-c3cc4ccc5nc4n3CCCCCC[C@@H](C)C(=O)N[C@@H]5C)n(C)c12` [Example 110, (8~{R},11~{R})-17-[5-[(3~{R})-3-aminopiperidine-1-carbonyl]-7-methoxy-1-methyl-benzimidazol-2-yl]-8,11-dimethyl-1,10,19-triazatricyclo[10.5.2.0^{15,18}]nonadeca-12(19),13,15(18),16-tetraen-9-one] the value was 70 nM. Consider `COc1cc(C(=O)N2CCC[C@@H](N)C2)cc2nc(-c3cc4ccc5nc4n3CCCCCC[C@H](C)C(=O)N[C@@H]5C)n(C)c12` [Example 111, (8~{S},11~{R})-17-[5-[(3~{R})-3-aminopiperidine-1-carbonyl]-7-methoxy-1-methyl-benzimidazol-2-yl]-8,11-dimethyl-1,10,19-triazatricyclo[10.5.2.0^{15,18}]nonadeca-12(19),13,15(18),16-tetraen-9-one], for which the IC50 was 49 nM. In the case of `COc1cc(C(=O)N2CCC[C@@H](N)C2)cc2nc(-c3cc4ccc5nc4n3CCCCCC[C@@H]3CCN(C3=O)[C@@H]5C)n(C)c12` [Example 112, (2~{R},6~{R})-14-[5-[(3~{R})-3-aminopiperidine-1-carbonyl]-7-methoxy-1-methyl-benzimidazol-2-yl]-2-methyl-3,13,19-triazatetracyclo[11.5.2.1^{3,6}.0^{16,20}] henicosa-1(19),14,16(20),17-tetraen-21-one], the IC50 was 81 nM. Regarding `COc1cc(C(=O)N2CCC[C@@H](N)C2)cc2nc(-c3cc4ccc5cc4n3CCCCCC[C@@H]3CCN(C3=O)[C@@H]5C)n(C)c12` [Example 113, (2~{R},6~{R})-14-[5-[(3~{R})-3-aminopiperidine-1-carbonyl]-7-methoxy-1-methyl-benzimidazol-2-yl]-2-methyl-3,13-diazatetracyclo[11.5.2.1^{3,6}.0^{16,20}] henicosa-1(19),14,16(20),17-tetraen-21-one], the IC50 was found to be 302 nM.

In the case of `COc1cc(C(=O)N2CCC[C@@H](N)C2)cc2nc(-c3cc4ccc5nc4n3CC3(CCCCCC(=O)N[C@@H]5C)CC3)n(C)c12` [Example 114, (11~{R})-17-[5-[(3~{R})-3-aminopiperidine-1-carbonyl]-7-methoxy-1-methyl-benzimidazol-2-yl]-11-methyl-spiro[1,10,19-triazatricyclo[10.5.2.0^{15,18}]nonadeca-12(19),13,15(18),16-tetraene-3,1′-cyclopropane]-9-one], the IC50 turned out to be 61 nM.

Regarding `C[C@H]1NC(=O)C(C)(C)CCCCCCn2c(-c3nc4cc(C(=O)N5CCC[C@@H](N)C5)ccc4n3C3CC3)cc3ccc1nc32` [Example 117, (11~{R})-17-[5-[(3~{R})-3-aminopiperidine-1-carbonyl]-1-cyclopropyl-benzimidazol-2-yl]-8,8,11-trimethyl-1,10,19-triazatricyclo[10.5.2.0^{15,18}]nonadeca-12(19),13,15(18),16-tetraen-9-one], the IC50 was determined as 54 nM.

Consider `COc1cc(C(=O)N2CCC[C@@H](N)C2)cc2nc(-c3cc4ccc5nc4n3C[C@H]3C[C@H]3CCCCC(=O)N[C@@H]5C)n(C)c12` [Example 118, (3~{S},5~{R},12~{R})-18-[5-[(3~{R})-3-aminopiperidine-1-carbonyl]-7-methoxy-1-methyl-benzimidazol-2-yl]-12-methyl-1,11,20-triazatetracyclo[11.5.2.0^{3,5}.0^{16,19}] icosa-13(20),14,16(19),17-tetraen-10-one], for which the IC50 was found to be 41 nM.

Turning to `COc1cc(C(=O)N2CCC[C@@H](N)C2)cc2nc(-c3cc4ccc5nc4n3C[C@H]3C[C@H]3CCCC(C)(C)C(=O)N[C@@H]5C)n(C)c12` [Example 119, (3~{S},5~{R},12~{R})-18-[5-[(3~{R})-3-aminopiperidine-1-carbonyl]-7-methoxy-1-methyl-benzimidazol-2-yl]-9,9,12-trimethyl-1,11,20-triazatetracyclo[11.5.2.0^{3,5}.0^{16,19}] icosa-13(20),14,16(19),17-tetraen-10-one], the IC50 came to 60 nM. For the compound `COc1cc(C(=O)N2[C@H]3CC[C@@H]2[C@H](N)C3)cc2nc(-c3cc4ccc5nc4n3C/C=C\CCCCCC(=O)N[C@@H]5C)c(C)n12` [Example 120, (12˜{R})-18-[7-[(1˜{R},2˜{R},4˜{S})-2-amino-7-azabicyclo[2.2.1]heptane-7-carbonyl]-5-methoxy-3-methyl-imidazo[1,2-a]pyridin-2-yl]-12-methyl-1,11,20-triazatricyclo[11.5.2.0^{16,19}]icosa-3,13(20),14,16(19),17-pentaen-10-one], the IC50 was 22 nM. Consider `COc1cc(C(=O)N2[C@H]3CC[C@@H]2[C@H](N)C3)cc2nc(-c3cc4ccc5nc4n3CCCCCCC(C)(C)C(=O)N[C@@H]5C)c(C)n12` [Example 121, (11~{R})-17-[7-[(1~{R},2~{R},4~{S})-2-amino-7-azabicyclo[2.2.1]heptane-7-carbonyl]-5-methoxy-3-methyl-imidazo[1,2-a]pyridin-2-yl]-8,8,11-trimethyl-1,10,19-triazatricyclo[10.5.2.0^{15,18}]nonadeca-12(19),13,15(18),16-tetraen-9-one], for which the IC50 came to 46 nM. As to `COc1cc(C(=O)N2[C@H]3CC[C@@H]2[C@H](N)C3)cc2nc(-c3cc4ccc5nc4n3CCCCCC[C@@H](C)C(=O)N[C@@H]5C)c(C)n12` [Example 122, (8~{R},11~{R})-17-[7-[(1~{R},2~{R},4~{S})-2-amino-7-azabicyclo[2.2.1]heptane-7-carbonyl]-5-methoxy-3-methyl-imidazo[1,2-a]pyridin-2-yl]-8,11-dimethyl-1,10,19-triazatricyclo[10.5.2.0^{15,18}]nonadeca-12(19),13,15(18),16-tetraen-9-one], the IC50 came out at 16 nM. With `COc1cc(C(=O)N2[C@H]3CC[C@@H]2[C@H](N)C3)cc2nc(-c3cc4ccc5nc4n3C/C=C\CCCCC(=O)N[C@@H]5C)c(C)n12` [Example 123, (3~{2},11~{R})-17-[7-[(1~{R},2~{R},4~{S})-2-amino-7-azabicyclo[2.2.1]heptane-7-carbonyl]-5-methoxy-3-methyl-imidazo[1,2-a]pyridin-2-yl]-11-methyl-1,10,19-triazatricyclo[10.5.2.0^{15,18}]nonadeca-3,12(19),13,15(18),16-pentaen-9-one], the IC50 came out at 12 nM.
